In the oligonucleotide strings, read from the 5' end, every base follows the letter of its sugar. An asterisk marks phosphorothioate; unmarked linkages are phosphodiester. Other units and linkages are bracketed, terminal groups are in braces. A string of capitals states the bases alone. d = 2'-deoxy (DNA); m = 2'-O-methyl
Biological target: cGAS (Homo sapiens, UniProt Q8N884)
Experiment: ISD70-driven IP-10 (and IFN-β) production in THP-1 cells, ELISA
Assay type: cell-based
Design: endogenous in cells; host or cells: THP-1 (undifferentiated)
Conditions: THP-1; 100 nM ASO overnight, then ISD70 2.5 μg/ml 7-8 h; percentage of ISD70 only

Sequence of cGAS (Q8N884 whole entry): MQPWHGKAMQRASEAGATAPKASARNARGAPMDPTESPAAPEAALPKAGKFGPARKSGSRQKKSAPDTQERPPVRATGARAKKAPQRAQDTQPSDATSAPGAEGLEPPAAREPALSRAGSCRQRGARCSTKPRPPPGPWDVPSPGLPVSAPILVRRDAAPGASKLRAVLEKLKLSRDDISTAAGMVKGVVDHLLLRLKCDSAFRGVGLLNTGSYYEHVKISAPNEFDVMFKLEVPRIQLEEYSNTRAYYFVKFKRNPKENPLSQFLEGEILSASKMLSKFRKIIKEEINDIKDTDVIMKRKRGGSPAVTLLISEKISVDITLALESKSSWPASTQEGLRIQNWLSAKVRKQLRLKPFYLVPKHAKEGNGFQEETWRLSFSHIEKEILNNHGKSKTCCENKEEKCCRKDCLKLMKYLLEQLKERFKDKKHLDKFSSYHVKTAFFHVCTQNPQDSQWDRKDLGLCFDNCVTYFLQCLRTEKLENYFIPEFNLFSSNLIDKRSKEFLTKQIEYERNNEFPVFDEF

Substance	cGAS-100 nM: averaged IP-10 levels relative to ISD70 [%]
mC*mU*mC*mU*mC*T*G*G*T*C*C*C*A*T*C*mC*mC*mU*mU*mC (mC*mU*mC*mU*mC*dT*dG*dG*dT*dC*dC*dC*dA*dT*dC*mC*mC*mU*mU*mC; antisense) [[LINC-PINT]109]	80.22
mC*mU*mU*mC*mU*C*T*C*T*G*G*T*C*C*C*mA*mU*mC*mC*mC (mC*mU*mU*mC*mU*dC*dT*dC*dT*dG*dG*dT*dC*dC*dC*mA*mU*mC*mC*mC) [[LINC-PINT]112]	82.64
mC*mU*mU*mU*mA*T*A*T*T*A*C*A*A*A*G*mC*mU*mA*mC*mU (mC*mU*mU*mU*mA*dT*dA*dT*dT*dA*dC*dA*dA*dA*dG*mC*mU*mA*mC*mU; antisense) [[LINC-PINT]2755]	92.54
mG*mA*mA*mA*mA*G*A*T*T*A*T*C*T*T*C*mU*mU*mU*mU*mA (GAAAAGATTATCTTCUUUUA; sugars from the 5' end m5 d10 m5, all phosphorothioate, methylation of C not given here) [[CDKN2B-AS1]2134]	51.49
mG*mA*mU*mU*mA*A*A*A*C*A*G*A*T*T*A*mA*mU*mA*mC*mA (mG*mA*mU*mU*mA*dA*dA*dA*dC*dA*dG*dA*dT*dT*dA*mA*mU*mA*mC*mA) [[CDKN2B-AS1]1773]	89.36
mG*mC*mA*mA*mG*G*C*A*G*A*G*A*A*A*C*mU*mC*mC*mA*mG (GCAAGGCAGAGAAACUCCAG; sugars from the 5' end m5 d10 m5, all phosphorothioate, methylation of C not given here) [[LINC-PINT]1315 KL]	30.64
mG*mC*mG*mU*mA*G*T*T*T*C*T*C*T*T*C*mC*mU*mC*mC*mC (GCGUAGTTTCTCTTCCUCCC; sugars from the 5' end m5 d10 m5, all phosphorothioate, methylation of C not given here) [[LINC-PINT]935 KL]	50.62
mG*mG*mA*mU*mU*A*A*A*A*C*A*G*A*T*T*mA*mA*mU*mA*mC (GGAUUAAAACAGATTAAUAC; sugars from the 5' end m5 d10 m5, all phosphorothioate, methylation of C not given here) [[CDKN2B-AS1]1774]	50.11
mG*mG*mG*mU*mC*T*C*C*T*C*C*A*C*A*C*mC*mC*mU*mU*mC (GGGUCTCCTCCACACCCUUC; antisense; sugars from the 5' end m5 d10 m5, all phosphorothioate, methylation of C not given here) [[LINC-PINT]128]	37.83
mG*mG*mU*mC*mC*C*A*T*C*C*C*T*T*C*T*mG*mC*mU*mG*mC (GGUCCCATCCCTTCTGCUGC; sugars from the 5' end m5 d10 m5, all phosphorothioate, methylation of C not given here) [[LINC-PINT]103]	45.23
mG*mG*mU*mC*mU*C*C*T*C*C*A*C*A*C*C*mC*mU*mU*mC*mU (mG*mG*mU*mC*mU*dC*dC*dT*dC*dC*dA*dC*dA*dC*dC*mC*mU*mU*mC*mU; antisense) [[LINC-PINT]127]	36.95
mG*mG*mU*mG*mG*C*C*A*C*A*G*G*C*A*A*mC*mG*mU*mC*mA (GGUGGCCACAGGCAACGUCA; antisense; sugars from the 5' end m5 d10 m5, all phosphorothioate, methylation of C not given here) [[CDKN2B-AS1]2196]	48.58
mG*mU*mC*mA*mA*A*C*C*T*A*G*A*A*A*G*mA*mA*mG*mC*mA (mG*mU*mC*mA*mA*dA*dC*dC*dT*dA*dG*dA*dA*dA*dG*mA*mA*mG*mC*mA; antisense) [[CDKN2B-AS1]1528]	68.94
mG*mU*mC*mC*mC*A*G*G*C*C*T*C*C*A*G*mU*mG*mU*mC*mU (mG*mU*mC*mC*mC*dA*dG*dG*dC*dC*dT*dC*dC*dA*dG*mU*mG*mU*mC*mU; antisense) [[CDKN2B-AS1]2223]	74.22
mG*mU*mC*mC*mC*A*T*C*C*C*T*T*C*T*G*mC*mU*mG*mC*mC (GUCCCATCCCTTCTGCUGCC; antisense; sugars from the 5' end m5 d10 m5, all phosphorothioate, methylation of C not given here) [[LINC-PINT]102]	113.87
mG*mU*mC*mC*mG*T*A*C*C*T*C*C*A*C*C*mC″mA*mC*mC*mG [[LINC-PINT]727.1]	86.09
mG*mU*mC*mU*mC*C*T*C*C*A*C*A*C*C*C*mU*mU*mC*mU*mC (mG*mU*mC*mU*mC*dC*dT*dC*dC*dA*dC*dA*dC*dC*dC*mU*mU*mC*mU*mC; antisense) [[LINC-PINT]126]	114.36
mG*mU*mU*mC*mA*G*T*C*A*G*A*T*C*G*C*mU*mG*mG*mG*mA (mG*mU*mU*mC*mA*dG*dT*dC*dA*dG*dA*dT*dC*dG*dC*mU*mG*mG*mG*mA) [[LINC-PINT]412 KL]	93.74

Substance	cGAS-100 nM: averaged IP-10 levels relative to ISD70 [%]
mU*mA*mA*mA*mA*T*A*A*G*G*G*G*A*A*T*mA*mG*mG*mG*mG (mU*mA*mA*mA*mA*dT*dA*dA*dG*dG*dG*dG*dA*dA*dT*mA*mG*mG*mG*mG) [[CDKN2B-AS1]80]	110.58
mU*mC*mC*mC*mA*A*C*T*C*T*T*C*T*A*A*mC*mU*mC*mG*mU (mU*mC*mC*mC*mA*dA*dC*dT*dC*dT*dT*dC*dT*dA*dA*mC*mU*mC*mG*mU; antisense) [[LINC-PINT]1284 KL]	99.64
mU*mC*mC*mC*mA*T*C*C*C*T*T*C*T*G*C*mU*mG*mA*mC*mA (UCCCATCCCTTCTGCUGACA; sugars from the 5' end m5 d10 m5, all phosphorothioate, methylation of C not given here) [[LINC-PINT]101]	86.62
mU*mC*mU*mC*mC*A*T*G*T*C*C*C*A*G*G*mC*mC*mU*mC*mC (mU*mC*mU*mC*mC*dA*dT*dG*dT*dC*dC*dC*dA*dG*dG*mC*mC*mU*mC*mC; antisense) [[CDKN2B-AS1]2230]	94.78
mU*mC*mU*mC*mU*C*T*G*G*T*C*C*C*A*T*mC*mC*mC*mU*mU (mU*mC*mU*mC*mU*dC*dT*dG*dG*dT*dC*dC*dC*dA*dT*mC*mC*mC*mU*mU; antisense) [[LINC-PINT]110]	92.39
mU*mC*mU*mC*mU*G*G*T*C*C*C*A*T*C*C*mC*mU*mU*mC*mU (UCUCUGGTCCCATCCCUUCU; antisense; sugars from the 5' end m5 d10 m5, all phosphorothioate, methylation of C not given here) [[LINC-PINT]108]	104.65
mU*mC*mU*mG*mG*T*C*C*C*A*T*C*C*C*T*mU*mC*mU*mG*mC (UCUGGTCCCATCCCTUCUGC; antisense; sugars from the 5' end m5 d10 m5, all phosphorothioate, methylation of C not given here) [[LINC-PINT]106]	48.75
mU*mG*mA*mC*mA*A*A*A*C*A*A*T*A*A*T*mA*mA*mC*mA*mG (mU*mG*mA*mC*mA*dA*dA*dA*dC*dA*dA*dT*dA*dA*dT*mA*mA*mC*mA*mG) [[LINC-PINT]384]	88.79
mU*mG*mA*mC*mA*T*T*T*C*G*T*G*G*C*T*mC*mC*mU*mA*mC (mU*mG*mA*mC*mA*dT*dT*dT*dC*dG*dT*dG*dG*dC*dT*mC*mC*mU*mA*mC; antisense) [[LINC-PINT]523 KL]	39.34
mU*mG*mA*mU*mG*A*T*G*C*T*T*G*C*A*G*mG*mA*mG*mG*mC (mU*mG*mA*mU*mG*dA*dT*dG*dC*dT*dT*dG*dC*dA*dG*mG*mA*mG*mG*mC) [[LINC-PINT|283.1]	85.85
mU*mG*mG*mC*mG*T*A*G*T*T*T*C*T*C*T*mU*mC*mC*mU*mC (mU*mG*mG*mC*mG*dT*dA*dG*dT*dT*dT*dC*dT*dC*dT*mU*mC*mC*mU*mC; antisense) [[LINC-PINT]937.1]	70.97
mU*mG*mU*mG*mA*A*A*A*G*A*T*T*A*T*C*mU*mU*mC*mU*mU (UGUGAAAAGATTATCUUCUU; sugars from the 5' end m5 d10 m5, all phosphorothioate, methylation of C not given here) [[CDKN2B-AS1]2137]	40.72
mU*mG*mU*mU*mU*C*C*C*C*G*G*A*G*A*G*mC*mA*mA*mU*mG (UGUUUCCCCGGAGAGCAAUG; antisense; sugars from the 5' end m5 d10 m5, all phosphorothioate, methylation of C not given here) [[LINC-PINT]501 KL]	57.81
mU*mU*mA*mA*mA*T*A*A*T*C*T*A*G*T*T*mU*mG*mA*mA*mG (UUAAATAATCTAGTTUGAAG; sugars from the 5' end m5 d10 m5, all phosphorothioate, methylation of C not given here) [[CDKN2B-AS1]132]	52.20
mU*mU*mA*mG*mC*T*C*C*T*T*G*C*C*T*C*mG*mU*mU*mC*mC (mU*mU*mA*mG*mC*dT*dC*dC*dT*dT*dG*dC*dC*dT*dC*mG*mU*mU*mC*mC; antisense) [[LINC-PINT] 1222]	63.80
mU*mU*mC*mU*mC*T*C*T*G*G*T*C*C*C*A*mU*mC*mC*mC*mU (mU*mU*mC*mU*mC*dT*dC*dT*dG*dG*dT*dC*dC*dC*dA*mU*mC*mC*mC*mU; antisense) [[LINC-PINT]111]	77.41
mU*mU*mG*mG*mC*C*T*G*T*G*G*A*T*G*C*mU*mU*mU*mG*mU (mU*mU*mG*mG*mC*dC*dT*dG*dT*dG*dG*dA*dT*dG*dC*mU*mU*mU*mG*mU) [[LINC-PINT]2673.1]	68.35

Same assay, conditions: THP-1; 2′OMe or PS oligos, 100-250 nM, pre-treatment as in figure legends; ISD70 2.5 μg/ml

Substance	inhibition of ISD70-driven IP-10 production (in words)
mG*mG*mU*mC*mC*C*A*T*C*C*C*T*T*C*T*mG*mC*mU*mG*mC (GGUCCCATCCCTTCTGCUGC; sugars from the 5' end m5 d10 m5, all phosphorothioate, methylation of C not given here) [[LINC-PINT]103]	significantly inhibiting ISD70-driven IP-10 production

Reference: patent US20240384268A1, “Oligonucleotides” (Hudson Institute of Medical Research, priority 2021, published 2024)
